According to patent publication US20250320227A1, “MACROCYCLIC OREXIN RECEPTOR AGONISTS AND USES THEREOF” (Jazz Pharmaceuticals Ireland Limited, priority 2022, published 2025):
Where two headings read alike, the source gives them in different places.

Experiments:
[1] = target: T1, human recombinant OX2 (hOX2) receptors expressed in CHO cells (Homo sapiens, UniProt O43614); assay: IP-1 accumulation assay (IP-One HTRF) in hOX2-CHO cells; assay type: cell-based; settings: 60 min incubation at 37° C., mean of at least two independent experiments, read-out: EC50_OX2R Category
T1 construct: host or cells: CHO cells (hOX2-CHO)
T1 sequence (O43614 1-444): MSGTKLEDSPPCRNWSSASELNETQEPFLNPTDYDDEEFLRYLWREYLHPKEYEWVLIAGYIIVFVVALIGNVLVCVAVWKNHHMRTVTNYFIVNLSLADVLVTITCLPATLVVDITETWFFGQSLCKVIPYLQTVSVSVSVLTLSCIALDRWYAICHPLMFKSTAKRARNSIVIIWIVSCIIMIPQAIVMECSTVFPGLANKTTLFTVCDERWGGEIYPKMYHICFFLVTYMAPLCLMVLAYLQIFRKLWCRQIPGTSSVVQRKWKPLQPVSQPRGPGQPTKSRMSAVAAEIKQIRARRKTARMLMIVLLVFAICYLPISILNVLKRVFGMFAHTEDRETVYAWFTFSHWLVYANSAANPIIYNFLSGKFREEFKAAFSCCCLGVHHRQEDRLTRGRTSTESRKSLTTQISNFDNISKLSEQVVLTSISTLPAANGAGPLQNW
Summary of the method: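 IP-1 HTRF (665/615 ratio) after 60 min compound exposure at 37 °C, 11-point dilution, 0.5% DMSO, LiCl-containing HEPES-buffered HBSS pH 7.4. Response expressed as percent of maximal OX-A effect; EC50 by four-parameter logistic fit, averaged over at least two independent experiments in duplicate.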

[2] = acetonitrile

| EC50 [1] | SMILES | ring closure, yield of all isomers ([2]; from CC(COc1ccccc1[C@H]1CC[C@@H](OC[C@@H]2NCC[C@@]23COCC(=O)N3)CC1)C(=O)O, amide bond, HATU/DIPEA, 3.68 mM, 3.0 h) | ring closure, yield of all isomers ([2]; from C[C@@H]1CC2(COCC(=O)N2)C(CO[C@H]2CC[C@@H](c3c(F)cccc3OCC(=O)O)CC2)N1, amide bond, HATU, DIPEA, 19.2 mM, 3.0 h) | ring closure, yield of all isomers ([2]; from C[C@@H]1CC2(COCC(=O)N2)C(CO[C@H]2CC[C@@H](c3cccc(F)c3OCCC(=O)O)CC2)N1, amide bond, HATU, DIPEA, 12.2 mM, 3.0 h) | ring closure, yield of all isomers ([2]; from Cc1ccnc(O)c1[C@H]1CC[C@@H](OCC2N(C(=O)CCl)CCCC23COCC(=O)N3)CC1, ether bond, K2CO3, 2.06 mM, 90.0 °C, 12.0 h) |
| --- | --- | --- | --- | --- | --- |
| 100 to 1000 nM | CC1COc2ccccc2[C@H]2CC[C@H](CC2)OC[C@@H]2N(CC[C@@]23COCC(=O)N3)C1=O (relative stereo) [Example 5c, (1′s,3R,10′R,16′S,19′s)-10′-methyl-8′,18′-dioxa-12′-azaspiro[morpholine-3,15′-tetracyclo[17.2.2.0^2,70.0^12,16]tricosane]-2′(7′),3′,5′-triene-5,11′-dione and (1′s,3S, 10′S,16′R,19′s)-10′-methyl-8′,18′-dioxa-12′-azaspiro[morpholine-3,15′-tetracyclo[17.2.2.0^2,70.0^12,16]tricosane]-2′(7′), 3′,5′-triene-5,11′-dione] | 9.4% | – | – | – |
| < 100 nM | C[C@@H]1C[C@@]2(COCC(=O)N2)[C@@H]2CO[C@H]3CC[C@H](CC3)c3c(F)cccc3OCC(=O)N12 (single isomer, unassigned) [Example 17a] | – | 9% | – | – |
| < 100 nM | C[C@@H]1C[C@@]2(COCC(=O)N2)[C@@H]2CO[C@H]3CC[C@H](CC3)c3cccc(F)c3OCCC(=O)N12 (single isomer, unassigned) [Example 24a] | – | – | 37.1% | – |
| < 100 nM | Cc1ccnc2c1[C@H]1CC[C@H](CC1)OCC1N(CCCC13COCC(=O)N3)C(=O)CO2 (some centres unmarked) [Example 77, (1′s,19′s)-3′-methyl-8′,18′-dioxa-6′,11′-diazaspiro[morpholine-3,15′-tetracyclo[17.2.2.0^2,70.0^11,16]tricosane]-2′,4′,6′-triene-5,10′-dione] | – | – | – | 9.4% |
